Source: ChEMBL document CHEMBL2021829, “Design, Synthesis and Biological Evaluation of a Series of Novel Axl Kinase Inhibitors” (ACS Med Chem Lett, 2011)

What follows are molecules tested against T1, Aurora kinase A (Homo sapiens, UniProt O14965) (assay: Inhibition of Aurora A). Settings: not given.
T1 sequence (O14965 whole entry): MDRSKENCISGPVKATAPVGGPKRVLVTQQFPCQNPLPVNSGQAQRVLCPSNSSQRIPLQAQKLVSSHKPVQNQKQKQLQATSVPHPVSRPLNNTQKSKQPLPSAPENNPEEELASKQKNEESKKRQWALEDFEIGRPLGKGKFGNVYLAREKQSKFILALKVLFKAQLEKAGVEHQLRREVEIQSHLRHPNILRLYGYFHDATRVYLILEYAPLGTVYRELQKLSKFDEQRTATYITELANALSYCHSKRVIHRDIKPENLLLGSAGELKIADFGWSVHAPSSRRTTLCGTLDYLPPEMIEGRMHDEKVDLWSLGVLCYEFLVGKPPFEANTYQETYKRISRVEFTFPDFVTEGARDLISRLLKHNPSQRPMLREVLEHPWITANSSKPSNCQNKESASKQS

Question: For CN1CCN(Cc2ccc(Nc3ncc(Cl)c(Nc4ccccc4S(=O)(=O)N(C)C)n3)cc2)CC1 [DUBERMATINIB], which IC50 is on record?
Answer: 3 nM

These molecules were tested against Aurora kinase B (Homo sapiens, UniProt Q96GD4) (assay: Inhibition of Aurora B). Settings: not given.
Aurora kinase B, sequence (Q96GD4 whole entry): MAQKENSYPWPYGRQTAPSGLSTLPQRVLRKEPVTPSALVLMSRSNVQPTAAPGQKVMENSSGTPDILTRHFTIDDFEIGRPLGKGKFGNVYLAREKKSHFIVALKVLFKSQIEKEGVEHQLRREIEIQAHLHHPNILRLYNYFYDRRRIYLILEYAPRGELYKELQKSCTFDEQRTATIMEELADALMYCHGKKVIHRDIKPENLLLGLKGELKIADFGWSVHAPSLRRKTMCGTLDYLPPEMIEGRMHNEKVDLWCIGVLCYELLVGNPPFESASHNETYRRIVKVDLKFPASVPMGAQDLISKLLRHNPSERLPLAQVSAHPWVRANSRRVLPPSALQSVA

Question: For CN1CCN(Cc2ccc(Nc3ncc(Cl)c(Nc4ccccc4S(=O)(=O)N(C)C)n3)cc2)CC1 [DUBERMATINIB], which IC50 is on record?
Answer: 12.4 nM

These molecules were tested against T2, Tyrosine-protein kinase Mer (Homo sapiens, UniProt Q12866) (assay: Inhibition of Mer kinase). Settings: not given.
T2 sequence (Q12866 whole entry): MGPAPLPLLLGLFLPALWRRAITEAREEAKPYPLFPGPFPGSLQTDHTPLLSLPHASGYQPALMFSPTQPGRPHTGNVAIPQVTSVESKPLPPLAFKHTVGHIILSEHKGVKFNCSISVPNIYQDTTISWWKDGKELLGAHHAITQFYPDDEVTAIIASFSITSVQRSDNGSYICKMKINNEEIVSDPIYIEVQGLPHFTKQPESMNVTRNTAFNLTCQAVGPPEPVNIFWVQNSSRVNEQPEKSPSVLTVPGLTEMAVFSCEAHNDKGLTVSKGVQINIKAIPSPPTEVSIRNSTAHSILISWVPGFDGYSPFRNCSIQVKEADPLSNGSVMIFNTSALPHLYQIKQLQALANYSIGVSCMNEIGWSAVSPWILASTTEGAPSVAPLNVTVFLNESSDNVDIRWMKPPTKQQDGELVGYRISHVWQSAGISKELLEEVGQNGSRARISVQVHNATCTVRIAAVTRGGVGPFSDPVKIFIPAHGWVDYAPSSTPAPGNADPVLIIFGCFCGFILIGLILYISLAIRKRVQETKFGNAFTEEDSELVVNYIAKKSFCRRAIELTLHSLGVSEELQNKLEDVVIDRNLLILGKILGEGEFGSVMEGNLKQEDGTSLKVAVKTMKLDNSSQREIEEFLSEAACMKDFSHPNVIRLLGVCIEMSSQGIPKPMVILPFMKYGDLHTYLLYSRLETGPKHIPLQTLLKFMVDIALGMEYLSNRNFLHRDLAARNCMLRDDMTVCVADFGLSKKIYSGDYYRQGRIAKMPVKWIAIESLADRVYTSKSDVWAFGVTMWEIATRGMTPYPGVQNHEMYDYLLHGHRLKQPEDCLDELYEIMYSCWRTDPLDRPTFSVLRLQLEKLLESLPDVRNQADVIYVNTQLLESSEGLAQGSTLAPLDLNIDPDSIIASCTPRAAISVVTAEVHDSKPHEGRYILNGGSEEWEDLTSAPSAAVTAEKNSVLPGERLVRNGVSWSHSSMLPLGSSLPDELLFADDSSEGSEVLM

Question: CC(C)n1cnc2c(Nc3cccc(Cl)c3)nc(NCCO)nc21 was tested. Which IC50 did it give?
Answer: 11300 nM

What follows are molecules tested on PSN1 (assay: Cytotoxicity against human PSN1 cells after 96 hrs by ATP-lite luminescence assay). Settings: PSN1, 96 h.
Type: functional, cell-based

Question: How did the IC50 turn out when CN1CCN(Cc2ccc(Nc3ncc(Cl)c(-c4ccc(F)cc4S(=O)(=O)N4CCCC4)n3)cc2)CC1 was run?
Answer: 192 nM

Question: For CN1CCN(Cc2ccc(Nc3ncc(Cl)c(Nc4ccccc4C(=O)N(C)C)n3)cc2)CC1, which IC50 is on record?
Answer: 70 nM

Question: CN1CCN(Cc2ccc(Nc3ncc(Cl)c(Nc4ccccc4C(=O)NC4CC4)n3)cc2)CC1 was tested. Which IC50 did it give?
Answer: 64 nM

Question: How did the IC50 turn out when CN1CCN(Cc2ccc(Nc3ncc(Cl)c(Nc4ccccc4S(=O)(=O)N4CCCC4)n3)cc2)CC1 was run?
Answer: 2 nM

Question: CN1CCN(Cc2ccc(Nc3ncc(Cl)c(Nc4ccccc4C(=O)N4CCCC4)n3)cc2)CC1 was tested. Which IC50 did it give?
Answer: 21 nM

Question: CN1CCN(Cc2ccc(Nc3ncc(Cl)c(Nc4ccc(F)cc4S(=O)(=O)N4CCCC4)n3)cc2)CC1 was tested. Which IC50 did it give?
Answer: 9 nM

These molecules were tested against T3, Tyrosine-protein kinase receptor UFO (Homo sapiens, UniProt P30530). Settings: not given.
T3 sequence (P30530 whole entry): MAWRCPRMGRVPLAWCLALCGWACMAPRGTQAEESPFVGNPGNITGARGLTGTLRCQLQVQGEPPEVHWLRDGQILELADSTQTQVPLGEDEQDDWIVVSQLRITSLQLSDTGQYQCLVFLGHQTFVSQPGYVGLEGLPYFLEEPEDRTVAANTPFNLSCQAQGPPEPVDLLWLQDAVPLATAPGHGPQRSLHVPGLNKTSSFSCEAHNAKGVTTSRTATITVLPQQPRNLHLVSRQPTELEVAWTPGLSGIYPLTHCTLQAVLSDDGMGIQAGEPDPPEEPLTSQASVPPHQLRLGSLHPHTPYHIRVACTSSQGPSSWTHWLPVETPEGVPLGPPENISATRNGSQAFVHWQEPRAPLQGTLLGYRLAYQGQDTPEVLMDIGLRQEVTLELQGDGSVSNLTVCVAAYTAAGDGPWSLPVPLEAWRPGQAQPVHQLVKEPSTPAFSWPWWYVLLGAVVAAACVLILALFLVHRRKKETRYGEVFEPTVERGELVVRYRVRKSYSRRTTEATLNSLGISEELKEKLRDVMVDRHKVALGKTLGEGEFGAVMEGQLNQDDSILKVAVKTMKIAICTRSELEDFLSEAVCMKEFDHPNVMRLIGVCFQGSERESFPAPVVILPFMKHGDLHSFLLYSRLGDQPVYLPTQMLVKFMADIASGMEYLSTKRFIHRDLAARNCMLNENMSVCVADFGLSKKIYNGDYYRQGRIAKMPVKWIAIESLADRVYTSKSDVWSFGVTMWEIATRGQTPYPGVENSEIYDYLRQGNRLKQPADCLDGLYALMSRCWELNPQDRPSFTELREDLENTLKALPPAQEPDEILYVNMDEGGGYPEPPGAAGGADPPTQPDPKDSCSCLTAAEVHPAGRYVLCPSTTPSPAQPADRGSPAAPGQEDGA

Question: CN1CCN(Cc2ccc(Nc3ncc(C(F)(F)F)c(Nc4ccccc4C(=O)N(C)C)n3)cc2)CC1 was tested. Which IC50 did it give?
Answer: > 10000 nM

Question: Which IC50 does the source give for CN1CCN(Cc2ccc(Nc3ncc(Cl)c(-c4ccc(F)cc4S(=O)(=O)N4CCCC4)n3)cc2)CC1 here?
Answer: 91 nM

Question: Which IC50 does the source give for Cc1cnc(Nc2ccc(N3CCN(C)CC3)c(F)c2)nc1-c1ccc(F)cc1 here?
Answer: 6100 nM

Question: How did the IC50 turn out when Cc1cnc(Nc2ccc(OCCN3CCCCC3)cc2)nc1-c1ccc(F)c(Cl)c1 was run?
Answer: 1630 nM

Question: How did the IC50 turn out when CN1CCN(c2ccc(Nc3ncc(Cl)c(Nc4ccccc4S(=O)(=O)N(C)C)n3)cc2)CC1 was run?
Answer: 1730 nM

Question: How did the IC50 turn out when Cc1cnc(Nc2ccc(N3CCN(C)CC3)c(F)c2)nc1-c1ccc(F)c(Cl)c1 was run?
Answer: 2800 nM

Question: For CN1CCN(Cc2ccc(Nc3ncc(Cl)c(Nc4ccccc4S(=O)(=O)N4CCCC4)n3)cc2)CC1, which IC50 is on record?
Answer: 19 nM

Question: Which IC50 does the source give for CN1CCN(Cc2ccc(Nc3ncc(Cl)c(-c4ccc(F)cc4S(=O)(=O)N(C)C)n3)cc2)CC1 here?
Answer: 82 nM

Question: For CN1CCN(Cc2ccc(Nc3ncc(C4CC4)c(-c4ccc(F)c(Cl)c4)n3)cc2)CC1, which IC50 is on record?
Answer: 3400 nM
